# Source: patent publication US6737383B1, “Herbicidal oxadiazolidines” (priority 1999, dated 2004)
# What was measured:
# sugar beet = experiment: Test B pre/postemergence sugar beet; format: in vivo, Beta vulgaris
# Method in brief: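 Test chemicals in a non-phytotoxic solvent mixture with surfactant were sprayed preemergence onto planted seeds and postemergence onto plants 2 to 18 cm tall (1- to 4-leaf stage). After twelve to sixteen days in a greenhouse, injury was visually rated against untreated controls from 0 (no effect) to 10 (complete control).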
# rice = experiment: Test B flood test rice; format: in vivo, Oryza sativa
# Method in brief: (§1)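 Flood test on plants grown to the 2-leaf stage; treated plants kept in greenhouse twelve to sixteen days, then visually rated against controls on a 0 (no effect) to 10 (complete control) scale.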
# smallflower flatsedge = experiment: Test B flood test smallflower flatsedge; format: in vivo, Cyperus difformis
# Method in brief: as §1
# duck salad = experiment: Test B flood test duck salad; format: in vivo, Heteranthera limosa
# Method in brief: as §1
# bamyardgrass = experiment: Test B flood test barnyardgrass; format: in vivo, Echinochloa crus-galli
# Method in brief: as §1
# winter wheat [1] = experiment: Test E winter wheat; format: in vivo, Triticum aestivum; details: Postemergence; for Plant response rating, Wheat (winter): 0 to 100 scale
# Method in brief: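 Compounds formulated in non-phytotoxic solvent mixture with surfactant; for postemergence, sprayed on plants at 1- to 4-leaf stage grown in 60:40 sandy loam/greenhouse potting mix. Kept in greenhouse ~21 to 28 days, then visually rated against untreated controls.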
# blackgrass = experiment: Test E blackgrass; format: in vivo, Alopecurus myosuroides; details: Preemergence
# green foxtail = experiment: Test E green foxtail; format: in vivo, Setaria viridis; details: Preemergence
# Italian ryegrass = experiment: Test E Italian ryegrass; format: in vivo, Lolium multiflorum; details: Preemergence
# winter wheat [2] = experiment: Test E winter wheat; format: in vivo, Triticum aestivum; details: Preemergence
# wild oat = experiment: Test E wild oat; format: in vivo, Avena fatua; details: Preemergence
# winter barley = experiment: Test E winter barley; format: in vivo, Hordeum vulgare; details: Preemergence
# [3] = Rate 62 g/ha, headed Pre-emergence (flood test species), scale 0 to 10 (0 no effect, 10 complete control)
# [4] = Rate 125 g/ha, Pre-emergence, flood test species, scale 0 to 10 where 0 is no effect and 10 is complete control
# [5] = Rate 250 g/ha, Pre-emergence, flood-test species, scale 0 to 10, 0 is no effect, 10 is complete control
# [6] = Rate 500 g/ha, Pre-emergence, flood test species, scale 0 to 10 (0 no effect, 10 complete control)
# [7] = Rate 31 g/ha, 0 to 100 scale, 0 no effect, 100 complete control
# [8] = Rate 62 g/ha, 0 to 100 scale, 0 no effect, 100 complete control
# [9] = Rate 125 g/ha, 0 to 100 scale (0 no effect, 100 complete control)
smiles,measurement,setting,value
CC(C)N(C(=O)n1oc(=O)n(N(C)C)c1=O)c1ccccc1 [Compound 225],Sugarbeets plant response rating,"sugar beet; Preemergence, Rate 31 g/ha, visual rating, scale 0 to 10 (0 no effect, 10 complete control)",0
same,Sugarbeets plant response rating,"sugar beet; Preemergence, Rate 62 g/ha, scale of 0 to 10 where 0 is no effect and 10 is complete control",0
same,Sugarbeets plant response rating,"sugar beet; Preemergence, Rate 250 g/ha, scale of 0 to 10 where 0 is no effect and 10 is complete control",5
same,"Plant response rating, Sugarbeets","sugar beet; Preemergence, Rate 500 g/ha, scale of 0 to 10 where 0 is no effect and 10 is complete control",6
same,Sugarbeets plant response rating,"sugar beet; Rate 62 g/ha, Postemergence, scale of 0 to 10 where 0 is no effect and 10 is complete control",0
same,Sugarbeets plant response rating,"sugar beet; Rate 125 g/ha, Postemergence, scale 0 to 10",0
same,Sugarbeets plant response rating,"sugar beet; Rate 125 g/ha, Preemergence, scale of 0 to 10 where 0 is no effect and 10 is complete control",2
same,"Plant response rating (0 to 10; 0 is no effect, 10 is complete control), Sugarbeets","sugar beet; Rate 250 g/ha, Postemergence",3
same,Sugarbeets plant response rating,"sugar beet; Rate 500 g/ha, Postemergence, scale 0 to 10, 0 no effect, 10 complete control",2
same,Rice plant response rating,rice; [3],0
same,Rice plant response rating,rice; [4],0
same,Rice plant response rating,rice; [5],0
same,Rice plant response rating,rice; [6],0
same,S. Flatsedge plant response rating,smallflower flatsedge; [3],0
same,S. Flatsedge plant response rating,smallflower flatsedge; [4],0
same,S. Flatsedge plant response rating,smallflower flatsedge; [5],0
same,S. Flatsedge plant response rating,smallflower flatsedge; [6],0
same,Ducksalad plant response rating,duck salad; [3],0
same,Ducksalad plant response rating,duck salad; [4],0
same,Ducksalad plant response rating,duck salad; [5],0
same,Ducksalad plant response rating,duck salad; [6],0
same,Barnyardgrass plant response rating,bamyardgrass; [3],0
same,Barnyardgrass plant response rating,bamyardgrass; [4],0
same,Barnyardgrass plant response rating,bamyardgrass; [5],0
same,Barnyardgrass plant response rating,bamyardgrass; [6],0
same,"Plant response rating, Wheat (winter)","winter wheat [1]; Rate 31 g/ha, 0 no effect, 100 complete control",50
same,"Plant response rating, Wheat (winter)",winter wheat [1]; Rate 62 g/ha,60
same,"Plant response rating, Wheat (winter)","winter wheat [1]; Rate 125 g/ha, 0 is no effect, 100 is complete control",75
same,Wheat (winter) plant response rating,"winter wheat [1]; Rate 250 g/ha, 0 to 100 scale where 0 is no effect and 100 is complete control",70
same,"Plant response rating, Blackgrass",blackgrass; [7],30
same,"Plant response rating, Blackgrass",blackgrass; [8],50
same,"Plant response rating, Blackgrass",blackgrass; [9],60
same,Blackgrass plant response rating (0 to 100 scale),blackgrass; Rate 250 g/ha,80
same,"Plant response rating, Green foxtail",green foxtail; [7],30
same,"Plant response rating, Green foxtail",green foxtail; [8],60
same,"Plant response rating, Green foxtail",green foxtail; [9],50
same,Green foxtail plant response rating (0 to 100 scale),green foxtail; Rate 250 g/ha,60
same,"Plant response rating, I. Ryegrass",Italian ryegrass; [7],20
same,"Plant response rating, I. Ryegrass",Italian ryegrass; [8],30
same,"Plant response rating, I. Ryegrass",Italian ryegrass; [9],50
same,I. Ryegrass plant response rating (0 to 100 scale),Italian ryegrass; Rate 250 g/ha,90
same,"Plant response rating, Wheat (winter)",winter wheat [2]; [7],10
same,"Plant response rating, Wheat (winter)",winter wheat [2]; [8],30
same,"Plant response rating, Wheat (winter)",winter wheat [2]; [9],65
same,Wheat (winter) plant response rating (0 to 100 scale),winter wheat [2]; Rate 250 g/ha,70
same,"Plant response rating, Wild oat",wild oat; [7],30
same,"Plant response rating, Wild oat",wild oat; [8],40
same,"Plant response rating, Wild oat",wild oat; [9],50
same,Wild oat plant response rating (0 to 100 scale),wild oat; Rate 250 g/ha,60
same,"Plant response rating, Barley (winter)",winter barley; [7],0
same,"Plant response rating, Barley (winter)",winter barley; [8],50
same,"Plant response rating, Barley (winter)",winter barley; [9],50
same,Barley (winter) plant response rating (0 to 100 scale),winter barley; Rate 250 g/ha,60
